Test results as given in patent US20040197855A1, “Test system for determining gene toxicities” (priority 2001, published 2004).

Experiments:
[1] = system: Salmonella typhimurium; conditions: cited from earlier work
[2] = system: yeast and mammalian cells; conditions: cited from earlier work
[3] = system: rats; conditions: cited from earlier work
[4] = system: mice; conditions: cited from earlier work
[5] = system: GalER-VP; assay: Estradiol-inducible expression of I-SceI meganuclease in KMV cells; assay type: cell-based, human; conditions: KMV clones with genomic pGC-Sce; Gal4 recognition sequence promoter
From the text: In order to achieve controlled meganuclease expression because of the antiproliferative effect of DSBs, the extremely reliable, β-estradiol-inducible expression system was selected according to a preferred embodiment of the invention (Braselmann, S. et al. (1993) Proc. Natl. Acad. Sci. USA 90: 1657-1661; Dudenhöffer, C. (1999) Oncogene 18: 5773-5784). The expression system couples the so-called Gal4ER transcription factor to an expression cassette controlled by a Gal4ER-responsive promoter (compare FIG. 2). Gal4ER represents a fusion protein of the DNA binding domain of the Gal4 transcription factor with the strong, viral VP16 transactivator domain and a β-estradiol binding domain of the human β-estradiol receptor, making Gal4ER functionally inducible as transcription factor by β-estradiol. This principle of conditional expression permits an inducible increase in protein expression by at least one order of magnitude. […] Inducible I-SceI expression was detected in Western blot experiments. […]

| Compound | result in the Ames assay [1] | recombination events leading to deletions [2] | tumours in rats [3] | tumours in mice [4] | lowest concentration for complete promoter induction [5] [nM] |
| --- | --- | --- | --- | --- | --- |
| Cc1ccccc1N [o-toluidine] | negative | triggered | cause tumours | cause tumours |  |
| C[C@]12CC[C@@H]3c4ccc(O)cc4CC[C@H]3[C@@H]1CC[C@@H]2O [β-estradiol] |  |  |  |  | 50 |
